# Measurements as given in patent publication US12226401B2, “Molecular genetic approach to treatment and diagnosis of alcohol and drug dependence” (priority 2010, dated 2025).
# Test system: alcohol dependent individuals
# Assay: Randomized, double-blind, placebo-controlled, 12-week clinical trial of ondansetron vs placebo in alcohol dependent individuals by genotype: drinks per drinking day (DDD)
# Format: in vivo, human
# Conditions: for Drinks per Drinking Days, Least Squares Mean (Estimated Mean): OND
# Description: Two hundred and seventy eight male and female alcohol dependent individuals were entered into a randomized, double-blind, placebo-controlled, 12-week clinical trial. These individuals were divided into TT vs. […] The polymorphisms in 3''-UTR region of a gene may affect mRNA expression levels by altering their stability. […] Data was transformed to its natural log to correct for skewness. […] In total, ten SNPs in 5HT3a and nine SNPs in 5HT3b genes were analyzed in this study: […]
smiles,measurement,setting,value
"Cc1nccn1CC1CCc2c(c3ccccc3n2C)C1=O (stereo not drawn) [ondansetron, 9-methyl-3-[(2-methyl-1H-imidazol-1-yl)methyl]-1,2,3,9-tetrahydrocarbazol-4-one]","Estimate, OND vs. Placebo, drinks per drinking days (DDD)","AA or AC (RS1176719, RS17614942)",−2.83 DDD
same,"Estimate, OND vs. Placebo, drinks per drinking days (DDD)","AG or AC (RS1150226, RS17614942)",−2.12 DDD
same,"Estimate, OND vs. Placebo, drinks per drinking days (DDD)","AG or GG (RS1150226, RS1176713)",−2.43 DDD
same,"Least Squares Mean Difference, Drinks per Drinking Days, OND vs. Placebo",Among Comb (LL + TT or AC or AG),−1.75
same,"Least Squares Mean Difference, Drinks per Drinking Days, Comb vs. Others","Among OND, Comb = LL + TT or AC or AG",−2.21
same,"Least Squares Mean Difference, Drinks per Drinking Days, AG/AA vs. GG","Among OND, RS1150226",−1.91
same,"Least Squares Mean Difference, Drinks per Drinking Days, AC/AA vs. CC","Among OND, RS17614942",−2.13
same,"Least Squares Mean Difference, Drinks per Drinking Days, AC/AA vs. CC","Among OND, model RS17614942 (CC/AA, AC), Table 2G",−2.22
same,"Least Squares Mean Difference, Drinks per Drinking Days, OND vs. Placebo",Among RS1150226 AG/AA,−1.80
same,"Least Squares Mean Difference, Drinks per Drinking Days, OND vs. Placebo",Among RS17614942 AC/AA,−2.51
same,"Least Squares Mean, Drinks per Drinking Days",Comb (LL + TT or AC or AG),4.21
same,"Estimate, OND vs. Placebo, drinks per drinking days (DDD)","GG or AC (RS1176713, RS17614942)",−3.08 DDD
same,"Estimate, OND vs. Placebo, drinks per drinking days (DDD)","LL + AA (5-HTTLPR, RS1176719)",−5.22 DDD
same,"Estimate, OND vs. Placebo, drinks per drinking days (DDD)","LL + AA + AC (5-HTTLPR, RS1176719, RS17614942)",−5.96 DDD
same,"Estimate, OND vs. Placebo, drinks per drinking days (DDD)","LL + AC (5-HTTLPR, RS17614942)",−4.24 DDD
same,"Estimate, OND vs. Placebo, drinks per drinking days (DDD)","LL + AG (5-HTTLPR, RS1150226)",−3.06 DDD
same,"Estimate, OND vs. Placebo, drinks per drinking days (DDD)","LL + AG + AC (5-HTTLPR, RS1150226, RS17614942)",−4.09 DDD
same,"Drinks per Drinking Days, Least Squares Estimated Mean Difference","LL + CT/TT: OND vs. Placebo, simplified model",−1.55
same,"Estimate, OND vs. Placebo, drinks per drinking days (DDD)","LL + GG (5-HTTLPR, RS1176713)",−4.48 DDD
same,"Estimate, OND vs. Placebo, drinks per drinking days (DDD)","LL + TT (5-HTTLPR, RS1042173)",−2.08 DDD
same,"Estimate, OND vs. Placebo, drinks per drinking days (DDD)","LL + TT + AA (5-HTTLPR, RS1042173, RS1176719)",−8.50 DDD
same,"Estimate, OND vs. Placebo, drinks per drinking days (DDD)","LL or AA or AC (5-HTTLPR, RS1176719, RS17614942)",−1.55 DDD
same,"Estimate, OND vs. Placebo, drinks per drinking days (DDD)","LL or AC (5-HTTLPR, RS17614942)",−1.53 DDD
same,"Estimate, OND vs. Placebo, drinks per drinking days (DDD)","LL or AG (5-HTTLPR, RS1150226)",−1.37 DDD
same,"Estimate, OND vs. Placebo, drinks per drinking days (DDD)","LL or AG or AC (5-HTTLPR, RS1150226, RS17614942)",−1.43 DDD
same,"Estimate, OND vs. Placebo, drinks per drinking days (DDD)","LL or GG (5-HTTLPR, RS1176713)",−1.60 DDD
same,"Estimate, OND vs. Placebo, drinks per drinking days (DDD)","LL or GG or AC (5-HTTLPR, RS1176713, RS17614942)",−1.57 DDD
same,"Estimate, OND vs. Placebo, drinks per drinking days (DDD)","LL or TT (5-HTTLPR, RS1042173)",−0.87 DDD
same,"Estimate, OND vs. Placebo, drinks per drinking days (DDD)","LL or TT or AA (5-HTTLPR, RS1042173, RS1176719)",−0.99 DDD
same,"Estimate, OND vs. Placebo, drinks per drinking days (DDD)","LL or TT or AA or AC (5-HTTLPR, RS1042173, RS1176719, RS17614942)",−1.02 DDD
same,"Estimate, OND vs. Placebo, drinks per drinking days (DDD)","LL or TT or AC (5-HTTLPR, RS1042173, RS17614942)",−0.97 DDD
same,"Estimate, OND vs. Placebo, drinks per drinking days (DDD)","LL or TT or AG (5-HTTLPR, RS1042173, RS1150226)",−0.94 DDD
same,"Estimate, OND vs. Placebo, drinks per drinking days (DDD)","LL or TT or AG or AC (5-HTTLPR, RS1042173, RS1150226, RS17614942)",−0.93 DDD
same,"Estimate, OND vs. Placebo, drinks per drinking days (DDD)","LL or TT or GG (5-HTTLPR, RS1042173, RS1176713)",−0.94 DDD
same,"Reduction of DDD by ondansetron, carriers vs non-carriers of genotype combination",LL+AC/AA (5HTTLPR + rs17614942),3.33 sd
same,"Reduction of DDD by ondansetron, carriers vs non-carriers of genotype combination",LL+CT/TT (5HTTLPR + rs4938056),1.82 sd
same,"Drinks per Drinking Days, Least Squares Estimated Mean Difference","OND vs. Placebo, all genotypes, model RS17614942",−0.96
same,"Drinks per Drinking Days, Least Squares Estimated Mean Difference","OND vs. Placebo, all genotypes, model RS17614942 and 5-HTTLPR",−1.13
same,"Drinks per Drinking Days, Least Squares Mean (Estimated Mean)","5-HTTLPR LL, model 5-HTTLPR and RS1062613",4.80
same,"Drinks per Drinking Days, Least Squares Mean (Estimated Mean)","5-HTTLPR LL, model 5-HTTLPR and RS1150226",4.59
same,"Drinks per Drinking Days, Least Squares Mean (Estimated Mean)","5-HTTLPR LL, model RS4938056 and 5-HTTLPR",5.18
same,"Drinks per Drinking Days, Least Squares Mean (Estimated Mean)","5-HTTLPR LL, model RS17614942 and 5-HTTLPR",4.43
same,"Drinks per Drinking Days, Least Squares Mean (Estimated Mean)","5-HTTLPR LS/SS, model 5-HTTLPR and RS1062613",6.19
same,"Drinks per Drinking Days, Least Squares Mean (Estimated Mean)","5-HTTLPR LS/SS, model 5-HTTLPR and RS1150226",5.86
same,"Drinks per Drinking Days, Least Squares Mean (Estimated Mean)","5-HTTLPR LS/SS, model RS4938056 and 5-HTTLPR",6.54
same,"Drinks per Drinking Days, Least Squares Mean (Estimated Mean)","5-HTTLPR LS/SS, model RS17614942 and 5-HTTLPR",5.76
same,"Drinks per Drinking Days, Least Squares Mean (Estimated Mean)","LL + CT/TT, simplified model",4.61
same,"Drinks per Drinking Days, Least Squares Mean (Estimated Mean)","Others (not LL + CT/TT), simplified model",6.25
same,"Drinks per Drinking Days, Least Squares Mean (Estimated Mean)","RS1062613 TC/CC, model 5-HTTLPR and RS1062613",4.98
same,"Drinks per Drinking Days, Least Squares Mean (Estimated Mean)","RS1062613 TC/CC, model RS1062613",5.13
same,"Drinks per Drinking Days, Least Squares Mean (Estimated Mean)","RS1062613 TT, model 5-HTTLPR and RS1062613",6.02
same,"Drinks per Drinking Days, Least Squares Mean (Estimated Mean)","RS1062613 TT, model RS1062613",6.19
same,"Drinks per Drinking Days, Least Squares Mean (Estimated Mean)","RS1150226 AG/AA, model 5-HTTLPR and RS1150226",4.60
same,"Drinks per Drinking Days, Least Squares Mean (Estimated Mean)","RS1150226 AG/AA, model RS1150226",4.58
same,"Drinks per Drinking Days, Least Squares Mean (Estimated Mean)","RS1150226 GG, model 5-HTTLPR and RS1150226",5.85
same,"Drinks per Drinking Days, Least Squares Mean (Estimated Mean)","RS1150226 GG, model RS1150226",6.04
same,"Drinks per Drinking Days, Least Squares Mean (Estimated Mean)","RS4938056 CC, model RS4938056",6.67
same,"Drinks per Drinking Days, Least Squares Mean (Estimated Mean)","RS4938056 CC, model RS4938056 and 5-HTTLPR",6.42
same,"Drinks per Drinking Days, Least Squares Mean (Estimated Mean)","RS4938056 CT/TT, model RS4938056",5.43
same,"Drinks per Drinking Days, Least Squares Mean (Estimated Mean)","RS4938056 CT/TT, model RS4938056 and 5-HTTLPR",5.29
same,"Drinks per Drinking Days, Least Squares Mean (Estimated Mean)","RS17614942 AC/AA, model RS17614942",4.40
same,"Drinks per Drinking Days, Least Squares Mean (Estimated Mean)","RS17614942 AC/AA, model RS17614942 and 5-HTTLPR",4.37
same,"Drinks per Drinking Days, Least Squares Mean (Estimated Mean)","RS17614942 CC, model RS17614942",6.00
same,"Drinks per Drinking Days, Least Squares Mean (Estimated Mean)","RS17614942 CC, model RS17614942 and 5-HTTLPR",5.82
same,"Drinks per Drinking Days, Least Squares Mean (Estimated Mean)","all genotypes, model 5-HTTLPR and RS1062613",5.50
same,"Drinks per Drinking Days, Least Squares Mean (Estimated Mean)","all genotypes, model 5-HTTLPR and RS1150226",5.23
same,"Drinks per Drinking Days, Least Squares Mean (Estimated Mean)","all genotypes, model RS1062613",5.66
same,"Drinks per Drinking Days, Least Squares Mean (Estimated Mean)","all genotypes, model RS1150226",5.31
same,"Drinks per Drinking Days, Least Squares Mean (Estimated Mean)","all genotypes, model RS4938056",6.05
same,"Drinks per Drinking Days, Least Squares Mean (Estimated Mean)","all genotypes, model RS4938056 and 5-HTTLPR",5.86
same,"Drinks per Drinking Days, Least Squares Mean (Estimated Mean)","all genotypes, model RS17614942",5.20
same,"Drinks per Drinking Days, Least Squares Mean (Estimated Mean)","all genotypes, model RS17614942 and 5-HTTLPR",5.09
same,"Drinks per Drinking Days, Least Squares Mean (Estimated Mean)","all genotypes, simplified model, combined genotype LL + CT/TT vs Others",5.43
same,"Least Squares Mean, Drinks per Drinking Days",Others (not LL + TT or AC or AG),6.42
same,"Estimate, OND vs. Placebo, drinks per drinking days (DDD)",RS1042173 (TT),−0.86 DDD
same,"Least Squares Mean, Drinks per Drinking Days","RS1150226 AG (as printed, Table 3F)",6.08
same,"Least Squares Mean, Drinks per Drinking Days",RS1150226 AG/AA,4.20
same,"Least Squares Mean, Drinks per Drinking Days",RS1150226 GG,6.11
same,"Least Squares Mean, Drinks per Drinking Days","RS1150226 GG/AA (as printed, Table 3F)",4.19
same,"Least Squares Mean, Drinks per Drinking Days",RS17614942 AC,3.87
same,"Least Squares Mean, Drinks per Drinking Days",RS17614942 AC/AA,3.90
